Among the data in BindingDB's records for doi:10.1021/acs.jmedchem.5b00261 (Genentech, 2015) are EC50 values, retold here.

This experiment is described as follows: Inhibition of LRRK2 G2019S mutant-induced neuronal toxicity in human cortical neurons.

What is called EC50 is the concentration at which the effect is half-maximal. A high value points to a less potent agent.

For the compound `COc1cc(N2CCOCC2)ccc1Nc1ncc(F)c(Nc2ccccc2NS(C)(=O)=O)n1`, the EC50 is 4 nM.
